Measured values from ChEMBL document CHEMBL5376006, “Discovery of a Hidden Pocket beneath the NES Groove by Novel Noncovalent CRM1 Inhibitors” (J Med Chem, 2023).
Calls of active or inactive are those of the source. The calls are words filed in the database; no cut-off is given here.

Key:
[1] = system: SiHa; experiment: Antiproliferative activity against human SiHa cells assessed as inhibition of cell growth incubated for 72 hrs by CellTiter Glo assay; assay type: functional, cell-based
[2] = system: SiHa; experiment: Antiproliferative activity against human SiHa cells assessed as inhibition of cell growth incubated for 1 hrs by CellTiter Glo assay; assay type: functional, cell-based
[3] = system: HCT-116; experiment: Antiproliferative activity against human HCT-116 cells assessed as inhibition of cell growth incubated for 1 hrs by CellTiter Glo assay; assay type: functional, cell-based; conditions: HCT-116, 1 h
[4] = system: SK-N-SH; experiment: Antiproliferative activity against human SK-N-SH cells assessed as inhibition of cell growth incubated for 1 hrs by CellTiter Glo assay; assay type: functional, cell-based
[5] = system: HCT-116; experiment: Antiproliferative activity against human HCT-116 cells assessed as inhibition of cell growth incubated for 72 hrs by CellTiter Glo assay; assay type: functional, cell-based; conditions: HCT-116, 72 h
[6] = system: SK-N-SH; experiment: Antiproliferative activity against human SK-N-SH cells assessed as inhibition of cell growth incubated for 72 hrs by CellTiter Glo assay; assay type: functional, cell-based
[7] = system: HeLa; experiment: Antiproliferative activity against human HeLa cells assessed as inhibition of cell growth at 20 uM incubated for 72 hrs by SRB assay; assay type: functional, cell-based
[8] = target: T1, Exportin-1 (Homo sapiens, UniProt O14980); experiment: Inhibition of CRM1 (unknown origin) binding to GST-tagged NES PKI assessed as CRM1/NES band ratio at 20 uM incubated for 1.5 hrs by Coomassie brilliant blue staining based pull-down assay
T1 sequence (O14980 whole entry): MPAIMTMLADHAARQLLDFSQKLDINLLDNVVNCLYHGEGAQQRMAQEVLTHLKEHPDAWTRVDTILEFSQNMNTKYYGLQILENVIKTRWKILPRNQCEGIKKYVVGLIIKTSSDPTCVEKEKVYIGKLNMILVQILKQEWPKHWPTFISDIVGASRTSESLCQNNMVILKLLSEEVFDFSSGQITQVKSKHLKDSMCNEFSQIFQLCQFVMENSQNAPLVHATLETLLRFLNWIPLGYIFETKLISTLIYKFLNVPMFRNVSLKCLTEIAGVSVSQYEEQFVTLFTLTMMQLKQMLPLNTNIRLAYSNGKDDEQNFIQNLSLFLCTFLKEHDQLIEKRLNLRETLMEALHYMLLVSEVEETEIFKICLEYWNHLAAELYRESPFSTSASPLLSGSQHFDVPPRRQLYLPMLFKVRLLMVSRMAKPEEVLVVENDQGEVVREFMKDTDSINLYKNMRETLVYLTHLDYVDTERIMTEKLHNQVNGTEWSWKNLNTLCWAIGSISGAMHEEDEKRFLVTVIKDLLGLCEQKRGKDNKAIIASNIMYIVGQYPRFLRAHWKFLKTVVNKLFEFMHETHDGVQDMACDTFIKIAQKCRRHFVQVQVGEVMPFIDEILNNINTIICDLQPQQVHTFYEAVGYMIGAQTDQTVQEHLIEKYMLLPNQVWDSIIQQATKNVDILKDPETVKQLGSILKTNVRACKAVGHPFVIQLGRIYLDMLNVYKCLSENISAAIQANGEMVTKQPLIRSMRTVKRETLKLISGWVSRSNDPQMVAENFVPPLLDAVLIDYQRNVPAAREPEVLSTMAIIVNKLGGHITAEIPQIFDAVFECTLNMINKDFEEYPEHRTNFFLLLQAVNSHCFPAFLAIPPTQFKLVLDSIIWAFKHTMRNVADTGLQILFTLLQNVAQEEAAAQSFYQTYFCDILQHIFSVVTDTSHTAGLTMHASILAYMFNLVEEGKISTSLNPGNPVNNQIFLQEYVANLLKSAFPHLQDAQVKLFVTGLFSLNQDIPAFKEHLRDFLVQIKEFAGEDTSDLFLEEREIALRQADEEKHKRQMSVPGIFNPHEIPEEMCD

[9] = target: T1, Exportin-1; experiment: Non-covalent inhibition of CRM1 (unknown origin) binding to GST-tagged NES PKI at 20 uM incubated for 2 hrs in presence of DTT by Coomassie brilliant blue staining based pull-down assay
[10] = target: T1, Exportin-1; experiment: Binding affinity to CRM1 (unknown origin) assessed as inhibition of CRM1 binding to IAF-conjugated NES PKI by measuring dissociation constant in the presence of RanGTP by competitive MST analysis
[11] = system: A2780; experiment: Antiproliferative activity against human A2780 cells assessed as inhibition of cell growth at 20 uM incubated for 72 hrs by SRB assay; assay type: functional, cell-based
[12] = system: MCF7; experiment: Antiproliferative activity against human MCF7 cells assessed as inhibition of cell growth at 20 uM incubated for 72 hrs by SRB assay; assay type: functional, cell-based
[13] = system: A549; experiment: Inhibition of colony formation in human A549 cells at 20 uM incubated for 48 hrs by crystal violet staining based analysis; assay type: functional, cell-based
[14] = target: T1, Exportin-1; experiment: Inhibition of CRM1 cargo nuclear export in human MCF7 cells at 50 uM incubated for 4 hrs by confocal microscopic analysis; assay type: cell-based
[15] = Cytotoxicity against HEK293T cells assessed as inhibition of cell growth incubated for 72 hrs by SRB assay; assay type: toxicity, cell-based, HEK-293T; conditions: human
[16] = system: A549; experiment: Inhibition of colony formation in human A549 cells at 40 uM incubated for 48 hrs by crystal violet staining based analysis relative to control; assay type: functional
[17] = system: A549; experiment: Induction of apoptosis in human A549 cells assessed as activation of phosphorylated JNK at 50 uM incubated for 18 hrs by Western blot analysis; assay type: functional, cell-based
[18] = system: HepG2; experiment: Antiproliferative activity against human HepG2 cells assessed as inhibition of cell growth at 20 uM incubated for 72 hrs by SRB assay; assay type: functional, cell-based
[19] = system: HeLa; experiment: Antiproliferative activity against human HeLa cells assessed as inhibition of cell growth incubated for 72 hrs by SRB assay; assay type: functional, cell-based
[20] = system: PANC-1; experiment: Antiproliferative activity against human PANC-1 cells assessed as inhibition of cell growth at 20 uM incubated for 72 hrs by SRB assay; assay type: functional, cell-based
[21] = system: A549; experiment: Induction of apoptosis in human A549 cells assessed as caspase-3 cleavage at 50 uM incubated for 18 hrs by Western blot analysis; assay type: functional, cell-based
[22] = system: OVCAR-8; experiment: Antiproliferative activity against human OVCAR-8 cells assessed as inhibition of cell growth at 20 uM incubated for 72 hrs by SRB assay; assay type: functional, cell-based
[23] = system: A549; experiment: Antiproliferative activity against human A549 cells assessed as inhibition of cell growth at 20 uM incubated for 72 hrs by SRB assay; assay type: functional, cell-based
[24] = system: A549; experiment: Induction of apoptosis in human A549 cells assessed as PARP-1 cleavage at 50 uM incubated for 18 hrs by Western blot analysis; assay type: functional, cell-based
[25] = target: T1, Exportin-1; experiment: Binding affinity to CRM1 in human HeLa assessed as thermal stabilization at 20 uM incubated at 60 to 84 degreeC for 3 mins by CETSA based Western blot analysis; assay type: cell-based
[26] = system: A549; experiment: Induction of apoptosis in human A549 cells at 50 uM incubated for 18 hrs by Annexin V-FITC/PI staining based flow cytometric analysis; assay type: functional, cell-based
[27] = target: T1, Exportin-1; experiment: Inhibition of CRM1 cargo nuclear export in human A549 cells at 50 uM incubated for 4 hrs by confocal microscopic analysis; assay type: cell-based
[28] = system: Ishikawa; experiment: Antiproliferative activity against human Ishikawa cells assessed as inhibition of cell growth at 20 uM incubated for 72 hrs by SRB assay; assay type: functional, cell-based
[29] = system: HuCCT-1; experiment: Antiproliferative activity against human HuCCT-1 cells assessed as inhibition of cell growth at 20 uM incubated for 72 hrs by SRB assay; assay type: functional, cell-based
[30] = system: SW480; experiment: Antiproliferative activity against human SW480 cells assessed as inhibition of cell growth at 20 uM incubated for 72 hrs by SRB assay; assay type: functional, cell-based
[31] = system: MDA-MB-453; experiment: Antiproliferative activity against human MDA-MB-453 cells assessed as inhibition of cell growth at 20 uM incubated for 72 hrs by SRB assay; assay type: functional, cell-based
[32] = system: Exportin-1 (Homo sapiens), O14980 [C528S]; experiment: Inhibition of human CRM1 C528S mutant nuclear export transfected in human MCF7 cells at 50 uM incubated for 4 hrs by confocal microscopic analysis; assay type: cell-based
Exportin-1 (Homo sapiens), O14980 [C528S], sequence (O14980 whole entry C528S): as the sequence (O14980 whole entry) above, with C528S counted along it

[33] = target: T1, Exportin-1; experiment: Inhibition of CRM1 cargo nuclear export in digitonin-permeabilized human HeLa cells at 50 uM incubated for 4 hrs by confocal microscopic analysis; assay type: cell-based
[34] = Solubility of the compound in water; assay type: physicochemical
[35] = target: T1, Exportin-1; experiment: Inhibition of CRM1 (unknown origin) binding to GST-tagged NES PKI at 100 uM incubated for 1.5 hrs by Coomassie brilliant blue staining based pull-down assay

Q: Which IC50 [1] does the source give for `CCC(=C/[C@H](C)C/C=C/C(C)=C/[C@@H](C)C(=O)[C@@H](C)[C@H](O)[C@@H](C)C/C(C)=C/C(=O)O)/C=C/[C@@H]1OC(=O)C=C[C@@H]1C` [LEPTOMYCIN B] here?
A: 0.3 nM

Q: And the IC50 [2]?
A: 0.3 nM

Q: And the IC50 [3]?
A: 0.3 nM

Q: What about the IC50 [4] of the same compound?
A: 0.3 nM

Q: What about the IC50 [5] of the same compound?
A: 0.3 nM

Q: What about the IC50 [6] of the same compound?
A: 0.3 nM

Q: With `O=C(O)c1ccc(N2CCN(c3cccc(C(F)(F)F)c3)CC2)c(NC(=O)c2ccc(Br)cc2)c1` as the compound, how does the Activity [7] read?
A: Active

Q: What about the Ratio [8] of the same compound?
A: 0.29

Q: What does the source list for `O=C(O)c1ccc(N2CCN(c3cc(Cl)ccc3Cl)CC2)c(NC(=O)c2ccc(Cl)cc2)c1`?
A: Activity [7]: Active; Ratio [8]: 0.32

Q: Which results are given for `COc1ccc(Cl)cc1N1CCN(c2ccc(C(=O)O)cc2NC(=O)c2ccc(Cl)cc2)CC1`?
A: Activity [7]: Active; Ratio [8]: 0.85

Q: For `CC(C)CCNC/C=C/[S+]([O-])c1cc(C(F)(F)F)cc(C(F)(F)F)c1` (centres undefined), which inhibition [9] is on record?
A: inactive

Q: Which results are given for `O=C(O)c1ccc(N2CCN(c3cc(C(F)(F)F)cc(C(F)(F)F)c3)CC2)c(NC(=O)c2ccc(Br)cc2)c1`?
A: Kd [10]: 1600 nM; Activity [11]: Active; Activity [12]: Active; inhibition [13]: Active; inhibition [14]: Active; IC50 at 72 h [15]: 30900 nM; inhibition at 40 µM [16]: 100%; Activity [17]: Active; Activity [18]: Active; IC50 [19]: 10200 nM; Activity [20]: Active; Activity [21]: Active; Activity [22]: Active; Activity [23]: Active; Activity [24]: Active; Activity [25]: Active; Activity [7]: Active; Activity [26]: Active; inhibition [27]: Active; Activity [28]: Active; Activity [29]: Active; Activity [30]: Active; Activity [31]: Active; inhibition [32]: inactive; inhibition [33]: Active; solubility [34]: < 0.14 µg/mL

Q: With `O=C(O)c1ccc(N2CCN(c3cc(C(F)(F)F)ccc3C(F)(F)F)CC2)c(NC(=O)c2ccc(Br)cc2)c1` as the compound, how does the Kd [10] read?
A: 1800 nM

Q: And the Activity [11]?
A: Active

Q: What about the Activity [12] of the same compound?
A: Active

Q: What about the inhibition [13] of the same compound?
A: Active

Q: And the inhibition [14]?
A: Active

Q: What about the IC50 at 72 h [15] of the same compound?
A: 40400 nM

Q: And the inhibition at 40 µM [16]?
A: 100%

Q: What about the Activity [17] of the same compound?
A: Active

Q: What about the Activity [18] of the same compound?
A: Active

Q: And the IC50 [19]?
A: 15200 nM

Q: And the Activity [20]?
A: Active

Q: And the Activity [21]?
A: Active

Q: What about the Activity [22] of the same compound?
A: Active

Q: And the Activity [23]?
A: Active

Q: And the Activity [24]?
A: Active

Q: And the Activity [25]?
A: Active

Q: What about the Activity [7] of the same compound?
A: Active

Q: And the Activity [26]?
A: Active

Q: And the inhibition [27]?
A: Active

Q: What about the Activity [28] of the same compound?
A: Active

Q: And the Activity [29]?
A: Active

Q: And the Activity [30]?
A: Active

Q: What about the Activity [31] of the same compound?
A: Active

Q: What about the inhibition [32] of the same compound?
A: inactive

Q: What about the inhibition [33] of the same compound?
A: Active

Q: What about the solubility [34] of the same compound?
A: < 0.14 µg/mL

Q: What does the source list for `O=C(O)c1ccc(N2CCN(c3ccccc3C(F)(F)F)CC2)c(NC(=O)c2ccc(Br)cc2)c1`?
A: Activity [7]: Active; Ratio [8]: 0.28

Q: What does the source list for `Cc1ccc(Cl)cc1N1CCN(c2ccc(C(=O)O)cc2NC(=O)c2ccc(Cl)cc2)CC1`?
A: Activity [7]: Active; Ratio [8]: 0.26

Q: Which results are given for `COC(=O)c1ccc(N2CCN(c3cc(C(F)(F)F)cc(C(F)(F)F)c3)CC2)c(NC(=O)c2ccc(Br)cc2)c1`?
A: inhibition [14]: inactive; inhibition [35]: inactive

Q: Which Activity [7] does the source give for `Cc1ccc(Cl)cc1N1CCN(c2ccc(C(=O)O)cc2NC(=O)c2ccc(C(F)(F)F)cc2)CC1` here?
A: Active

Q: And the Ratio [8]?
A: 0.35

Q: With `COC(=O)c1ccc(N2CCN(c3cc(C)ccc3C)CC2)c(NC(=O)c2ccc(Cl)cc2)c1` as the compound, how does the inhibition [35] read?
A: inactive
